Measured values reported in publication PMC12101129, “An optimized CYP3A4-activatable fluorogenic sensor for in situ functional imaging and multi-dimensional inhibitor assessment” (Chemical Science, 2025).
Read-outs that look alike come from different tables or passages of the source. One block for each molecule: values may come before it.

How the values were obtained:
[1] = Phase II metabolic stability in HLMs; type: in vitro ADME; details: human, liver microsomes, read-out: phase II metabolic stability t1/2
[2] = biological target: T1, NCN 4-hydroxylation in HLMs (Homo sapiens, UniProt P08684); assay: Chemical inhibition assays of NCN 4-hydroxylation in HLMs; type: biochemical
T1 construct: tissue Bioreclamation IVT lot No. X008067; host or cells: pooled human liver microsomes from 50 donors
T1 sequence (P08684 whole entry): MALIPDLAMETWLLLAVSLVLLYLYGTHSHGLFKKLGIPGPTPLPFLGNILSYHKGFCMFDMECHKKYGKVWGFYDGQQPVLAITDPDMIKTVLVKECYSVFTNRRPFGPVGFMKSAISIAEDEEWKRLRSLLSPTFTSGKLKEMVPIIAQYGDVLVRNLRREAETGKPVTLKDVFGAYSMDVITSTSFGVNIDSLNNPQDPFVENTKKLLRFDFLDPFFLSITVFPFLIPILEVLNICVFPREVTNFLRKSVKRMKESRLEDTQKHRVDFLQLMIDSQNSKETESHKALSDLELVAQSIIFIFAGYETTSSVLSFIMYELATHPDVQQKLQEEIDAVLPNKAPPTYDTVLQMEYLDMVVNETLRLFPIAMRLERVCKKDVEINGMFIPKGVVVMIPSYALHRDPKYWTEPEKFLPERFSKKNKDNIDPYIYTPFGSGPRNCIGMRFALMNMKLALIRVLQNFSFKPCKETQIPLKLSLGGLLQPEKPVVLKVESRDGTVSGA

[3] = biological target: T2, human P-glycoprotein (Homo sapiens, UniProt P08183); assay: P-gp transporter assay in MDR1-MDCK cells with or without verapamil; type: in vitro ADME; details: for intracellular level in the presence of verapamil: MDR1-MDCK cells, with versus without verapamil
T2 construct: expressed in transfected cells; host or cells: MDR1-MDCK
T2 sequence (P08183 whole entry): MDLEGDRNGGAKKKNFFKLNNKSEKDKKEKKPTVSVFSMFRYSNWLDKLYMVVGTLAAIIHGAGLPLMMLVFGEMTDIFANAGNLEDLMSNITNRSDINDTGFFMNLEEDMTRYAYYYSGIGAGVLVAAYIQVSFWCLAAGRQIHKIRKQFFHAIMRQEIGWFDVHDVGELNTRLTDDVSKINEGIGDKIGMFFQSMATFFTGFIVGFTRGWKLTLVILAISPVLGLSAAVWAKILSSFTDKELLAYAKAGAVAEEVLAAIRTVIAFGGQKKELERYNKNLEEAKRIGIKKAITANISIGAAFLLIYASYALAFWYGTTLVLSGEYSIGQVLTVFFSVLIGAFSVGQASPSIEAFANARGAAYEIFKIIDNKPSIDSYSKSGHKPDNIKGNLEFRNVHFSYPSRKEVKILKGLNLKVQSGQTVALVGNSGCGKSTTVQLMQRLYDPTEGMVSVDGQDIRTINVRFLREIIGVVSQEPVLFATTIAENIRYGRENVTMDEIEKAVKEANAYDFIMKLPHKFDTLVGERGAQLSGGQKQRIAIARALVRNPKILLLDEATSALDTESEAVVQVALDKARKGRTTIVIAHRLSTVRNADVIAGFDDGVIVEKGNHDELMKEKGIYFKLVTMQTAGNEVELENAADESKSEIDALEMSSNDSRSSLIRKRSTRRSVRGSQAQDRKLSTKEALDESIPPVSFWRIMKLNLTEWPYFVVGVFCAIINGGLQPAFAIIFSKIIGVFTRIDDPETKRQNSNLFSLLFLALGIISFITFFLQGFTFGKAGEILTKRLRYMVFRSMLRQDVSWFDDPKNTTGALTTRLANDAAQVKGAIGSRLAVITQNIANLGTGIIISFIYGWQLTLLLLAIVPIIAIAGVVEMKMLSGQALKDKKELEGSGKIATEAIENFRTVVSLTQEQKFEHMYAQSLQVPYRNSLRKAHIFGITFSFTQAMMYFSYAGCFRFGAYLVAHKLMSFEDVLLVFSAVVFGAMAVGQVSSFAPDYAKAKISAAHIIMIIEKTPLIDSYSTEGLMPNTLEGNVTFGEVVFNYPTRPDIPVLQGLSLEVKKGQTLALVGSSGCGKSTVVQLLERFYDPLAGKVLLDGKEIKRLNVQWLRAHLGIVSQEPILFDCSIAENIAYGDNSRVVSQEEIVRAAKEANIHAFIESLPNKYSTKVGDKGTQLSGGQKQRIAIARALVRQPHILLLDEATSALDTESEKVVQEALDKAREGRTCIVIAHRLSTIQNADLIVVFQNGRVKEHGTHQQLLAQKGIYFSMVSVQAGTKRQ
Method: 1.10. P-gp transporter assay
To test whether NCN is pumped extracellularly by P-gp, MDR1-MDCK cells (a transfected cell line overexpressing human P-glycoprotein) were seeded in 96-well plates supplemented with DMEM media with 10% FBS. Then, verapamil (a potent P-gp inhibitor, 100 μL) was added to 96-well plates and cultured for 15 min. After that, the cells were treated with NCN/Rhodamine 123 (100 μL) for 2 h. The cells were collected and washed with PBS, and lysed by 200 µL ice-cold acetonitrile. Next, the cell supernatant was collected by centrifugation at 20,000 g, 4 °C for 30 min. The content of NCN in the cells was determined. […]

[4] = test system: Hep3B cells; assay: CCK-8 cytotoxicity assay; type: cell-based
[5] = In vivo inhibitory effect of ketoconazole on NCN pharmacokinetics; details: rats; for AUC(0-inf) / Cmax / half-life: rat, plasma, po, 20 mg/kg, NCN 20 mg/kg i.g.
Method: Twelve rats were randomly divided into two groups (CMC-Na + NCN group, […]
ketoconazole + NCN group).
50 mg/kg, respectively. Firstly, blank blood samples were collected. Then, ketoconazole or CMC-Na (control group) was administered orally. After 30 min, NCN was administered orally and blood samples were collected at the following time points […]
5-fold volume of acetonitrile.
1.21. Statistical analysis
All data are expressed as the mean ± standard deviation. The Km, Vmax, and IC50 values were determined via non-linear regression analysis using GraphPad Prism software. All statistical analyses were carried out using GraphPad Prism software (GraphPad Prism 8.0), and Origin (2025).

[6] = Effect of pH on fluorescence response of HNCN; type: physicochemical
[7] = test system: NCM460 cells; assay: Cell-membrane permeability assay in NCM460 cells; type: in vitro ADME
[8] = test system: Hep3B cells; assay: Cell-membrane permeability assay in Hep3B cells; type: in vitro ADME; details: for Cell-membrane penetration: 20 μM, 1 h
Method: 1.9. Cell-membrane permeability assay
Hep3B cells were cultured with the DMEM media supplemented with 10% fetal bovine serum (FBS) in a humidified culture chamber at 37 °C with 95% air and 5%
CO2. The cells were trypsinized and resuspended with the DMEM basal medium at a […]
200 μL cell suspension was incubated with NCN (20 μM) at 37 °C for 1 h. Then, the cells were centrifuged (1000 rpm, 3 min), resuspended in DMEM media, and centrifuged again. Next, the cells were lysed with ice-cold methanol (200 μL) and centrifuged (20000 g, 30 min, 4 °C). The content of NCN in the supernatant was determined. […]

[9] = biological target: T3, CYP3A4 (Homo sapiens, UniProt P08684); set-up: endogenous in cells; host or cells: Hep3B; details: cited from earlier work; for Km: CYP3A4, previously reported probe
T3 sequence (P08684 whole entry): as the sequence (P08684 whole entry) above

[10] = biological target: T4, human liver microsomes (HLMs) (Homo sapiens, UniProt P08684); assay: Enzyme kinetic analysis of NCN 4-hydroxylation in HLMs; type: biochemical; details: Vmax/Km, enzyme source HLMs
T4 construct: tissue Bioreclamation IVT lot No. X008067; host or cells: pooled human liver microsomes from 50 donors
T4 sequence (P08684 whole entry): as above
Method: (§1) 1.6. P450 reaction phenotyping and chemical inhibition assays
(§2) P450 reaction phenotyping analysis of NCN was determined using a panel of human recombinant cytochrome P450 enzymes, while the inhibitory effects of CYP specific inhibitors on NCN 4-hydroxylation in HLMs were assessed. The final concentration of each human recombinant CYP enzyme in the incubation system was 5 nM. Briefly, each sample was co-incubated with NCN at 37 °C for 30 min, the formation rate of HNCN was determined to assess the metabolic specificity of NCN.
(§3) Gaussian program conducted a GMMX conformational analysis using a DFT/B3LYP/6-31G(d) pre-optimized 3D geometry. The resulting GMMX conformers were optimized at B3LYP/6-31G(d) level. Moreover, all conformers were real minima, as no imaginary vibrational frequencies were found. The energy ranking was performed to find the minimum energy conformer. The minima conformer was optimized at B3LYP /6-311G(d,p) level. The molecular orbital energy levels and electrostatic potential (ESP) were calculated at the DFT/B3LYP/6-311G(d,p) level.
(§4) Frontier orbital and ESP were depicted by Multiwfn (Lu and Chen 2011) and VMD […]
(§5) 1.8. Enzyme kinetic analysis
(§6) The kinetic parameters of NCN 4-hydroxylation in HLMs were determined by performing a set of hydroxylation kinetic assays. Kinetic parameters (K m and Vmax) for NCN 4-hydroxylation were fitted by the following equation (a): […]

[11] = test system: human recombinant cytochrome P450 enzymes; assay: P450 reaction phenotyping assay; type: biochemical; details: NCN, panel of human P450 enzymes including CYP3A5
Method: as §1, §2, §3, §4, §5, §6

[12] = Bio-safety (tolerability) assessment of NCN in healthy mice; type: in vivo
Method: 1.15. Bio-safety assessment of NCN in healthy mice
Sixteen C57BL/6J mice (8 males and 8 females, 6 weeks) were randomly assigned into two groups (4 males and 4 females). All mice were subjected to adaptive feeding for 7 d before the experiment. NCN was dissolved in 0.5% CMC-Na, and mice were orally administered NCN (100 mg/kg)/0.5% CMC-Na continuously for 14 d. The mice were weighed every day, and their status was observed. After 14 d, blood and tissues from all mice were obtained for bio-safety assessment. Serum ALT, AST, TP, UREA, CREA, TG, Na+, and K+ levels were tested by using a fully automated serum biochemistry analysis (Thermo, USA). Mice organs were weighed and the organ index was calculated, and hematoxylin and eosin (H&E) stains were provided by Shanghai Ruibaohe Biotechnology Co., Ltd. […]

[13] = Oral bioavailability of NCN (pharmacokinetics); type: in vivo, SD rats; details: Sprague-Dawley, rat, plasma, rats; for AUC(0-inf) / Cmax / Tmax / half-life: n = 5
Method: precipitate the protein. After centrifugation again, the supernatant was determined to
quantify the levels of HNCN.
1.17. Oral bioavailability of NCN
intravenous injection NCN group).
h, and 24 h, respectively.
8 h, 12 h, and 24 h, respectively. […]

[14] = test system: human liver microsomes (HLMs)
[15] = biological target: T3, CYP3A4; assay: Fluorescence response of NCN to CYP3A4 (NCN 4-hydroxylation); type: biochemical; set-up: purchased Cypex
[16] = test system: human liver microsomes (HLMs); assay: Oxidative metabolism of candidate substrates in HLMs (fluorescent product formation); details: for fluorescence activation following oxidative metabolism: 30 min
[17] = KCZ 50 mg kg^−1 versus control, after oral NCN

- half-life [1]: 0.287 h
Compound: O=c1ccc2ccc(O)cc2o1 [7-hydroxycoumarin, reference compound]

- inhibition of NCN 4-hydroxylation [2]: completely blocking
Compound: Nn1nnc2ccccc21 [ABT, 1-aminobenzotriazole]

- inhibition of NCN 4-hydroxylation [2]: completely blocking
Compound: Cc1ccc(-c2c(-c3nn(C)c4ncnc(N5CC[C@H](N6CCCCC6)C5)c34)cnn2C)cc1 [CYP3cide]

- P-gp substrate [3]: non-substrates of P-gp
- intracellular level in the presence of verapamil [3]: unchanged
- half-life [1]: 1.36 h
- AUC(0-inf) ([5]; control group (CMC-Na)): 961 ng·h/mL
- Cmax ([5]; control group (CMC-Na)): 101 ng/mL
- half-life ([5]; control group (CMC-Na)): 1.77 h
- AUC(0-inf) ([5]; with KCZ 50 mg kg^−1 i.g.): 245 ng·h/mL
- Cmax ([5]; with KCZ 50 mg kg^−1 i.g.): 32 ng/mL
- half-life ([5]; with KCZ 50 mg kg^−1 i.g.): 2.88 h
- decrease of Cmax by KCZ [5, 17]: 3.16 fold
- reduction of AUC(0-inf) by KCZ [5, 17]: 3.92 fold
- pH range of stable fluorescence signals [6]: 7.0–11.0
Compound: O=C1c2cccc3c(O)ccc(c23)C(=O)N1CC1CC1 [HNCN, N-cyclopropylmethyl-4-hydroxy-1,8-naphthalimide]
- cytotoxicity [4]: minimal cytotoxicity

- Cell-membrane penetration [7]: 0.99%
- Cell-membrane penetration [8]: 2.29%
- P-gp substrate [3]: Yes
- intracellular level in the presence of verapamil [3]: significantly enhanced
Compound: CCN1C(=O)c2cccc3cccc(c23)C1=O [NEN, N-ethyl-1,8-naphthalimide, reference compound]
- Km ([9]; ref Ning et al. 2019): 59.8 µM
- Vmax ([9]; previously reported probe, ref Ning et al. 2019): 2.18 nmol/min/nmol

Compound: O=C1c2cccc3cccc(c23)C(=O)N1CC1CC1 [Probe 5, N-cyclopropylmethyl-1,8-naphthalimide]
- microsomal CLint [10]: 255 µL/min/mg
- isozyme specificity [11]: only CYP3A4 could effectively trigger discernible fluorescence enhancement
- Cell-membrane penetration [7]: 23.76%
- enhancement in cell-membrane permeability compared to NEN [7]: 23.9 fold
- enhancement in cell-membrane permeability compared to NEN [8]: 13.7 fold
- Cell-membrane penetration [8]: 31.45%
- intracellular level in the presence of verapamil [3]: unchanged
- P-gp substrate ([3]; listed as NCN): No and non-substrates of P-gp
- cytotoxicity [4]: minimal cytotoxicity
- toxicity, mortality, morbidity signs ([12]; oral 100 mg kg^−1, 14 consecutive days): no toxicity, mortality, or morbidity signs were observed
- histopathological examination of vital organs ([12]; oral 100 mg kg^−1, 14 days): no evidence of lesions or inflammation
- serum liver, kidney function and other indicators ([12]; oral 100 mg kg^−1, 14 days): within normal ranges
- visceral organ appearance ([12]; oral 100 mg kg^−1, 14 days): normal in color, size, and shape
- AUC(0-inf) ([13]; iv, i.v. 2 mg/kg): 858 ± 120 ng·h/mL
- Cmax ([13]; iv, i.v. 2 mg/kg): 1860 ± 477 ng/mL
- Tmax ([13]; iv, i.v. 2 mg/kg): 0.083 h
- half-life ([13]; iv, i.v. 2 mg/kg): 2.59 ± 0.33 h
- bioavailability ([13]; po, 20 mg/kg i.g. versus 2 mg/kg i.v.): 12.9%
- AUC(0-inf) ([13]; po, i.g. 20 mg/kg): 1110 ± 208 ng·h/mL
- Cmax ([13]; po, i.g. 20 mg/kg): 275 ± 65 ng/mL
- Tmax ([13]; po, i.g. 20 mg/kg): 2 ± 0.71 h
- half-life ([13]; po, i.g. 20 mg/kg): 1.79 ± 0.41 h
- AUC(0-inf) ([5]; control group (CMC-Na)): 1520 ng·h/mL
- Cmax ([5]; control group (CMC-Na)): 207 ng/mL
- half-life ([5]; control group (CMC-Na)): 1.47 h
- AUC(0-inf) ([5]; with KCZ 50 mg kg^−1 i.g.): 5840 ng·h/mL
- Cmax ([5]; with KCZ 50 mg kg^−1 i.g.): 674 ng/mL
- half-life ([5]; with KCZ 50 mg kg^−1 i.g.): 2.3 h
- increase of AUC0-inf by KCZ ([5]; KCZ 50 mg kg^−1 versus control): 3.85 fold
- increase of Cmax by KCZ ([5]; KCZ 50 mg kg^−1 versus control): 3.26 fold
- metabolites generated [14]: a single oxidative metabolite
- Detection limit ([15]; CYP3A4 concentration, NCN as substrate): 0.03 nM
- fluorescence enhancement ([15]; NCN 10 μM with CYP3A4 2 nM and NADPH, 30 min, around 555 nm): 125 fold
- fluorescence activation following oxidative metabolism [16]: noticeable fluorescence activation

- metabolites generated [14]: multiple metabolites
Compound: O=C1c2cccc3cccc(c23)C(=O)N1CC1CCC1 [Probe 6]
- fluorescence activation following oxidative metabolism [16]: noticeable fluorescence activation

Compound: O=C1c2cccc3cccc(c23)C(=O)N1Cc1ccco1 [Probe 15]
- metabolites generated [16]: multiple metabolites
- fluorescence activation following oxidative metabolism [16]: noticeable fluorescence activation

- Cell-membrane penetration [7]: 2.09%
- Cell-membrane penetration [8]: 4.82%
- P-gp substrate [3]: Yes
- intracellular level in the presence of verapamil [3]: significantly enhanced
Compound: O=C1c2cccc3cccc(c23)C(=O)N1Cc1ccc(F)cc1 [Probe F8, N-(4-fluorobenzyl)-1,8-naphthalimide, reference compound]
- Km ([9]; ref He et al. 2023): 0.36 µM
- Detection limit ([9]; previously reported probe, ref He et al. 2023): 0.1 nM

Compound: CC(C)c1nc(CN(C)C(=O)N[C@H](C(=O)N[C@@H](Cc2ccccc2)C[C@H](O)[C@H](Cc2ccccc2)NC(=O)OCc2cncs2)C(C)C)cs1 [ritonavir, reference compound]
- cytotoxicity [4]: minimal cytotoxicity
